In US12226405B2, “Compounds and compositions for inhibiting the activity of HIF2-alpha and their methods of use” (Novartis AG, priority 2020, dated 2025) one finds IC50 data, which are given here for 23 compounds.

pIC50: −log10 of the molar value.

For experiment [1], the system named is HIF2α-dependent transcription in 786-O-HRE-Luc cells. Briefly: In vitro cellular hypoxia response element (HRE) reporter gene assay (RGA) for HIF2α. Format: cell-based, human. The following applies: Homo sapiens, 24 hours incubation. The essentials: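 Renal carcinoma cells carrying a 4×HRE-driven PEST-destabilised firefly luciferase were treated a day after seeding with eleven 2-fold compound dilutions (0.1% DMSO) for 24 h at 37° C. BrightGlo luminescence, background-subtracted and expressed as % of DMSO control, was fitted four-parametrically for IC50.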
On the technique in general: In a reporter assay the amount or activity of a reporter protein is the signal.

Experiment [2] concerns the target HIF2α PAS-B domain (236-350, biotinylated on the N-terminus) (Homo sapiens (Human), UniProt Q99814).
Description: The assay buffer contained 50 mM Tris-HCl pH7 (Sigma), 20 mM NaCl (Fluka), 0.02% BSA (Sigma), 0.005% Triton X-100 (Pierce) and 1 mM DTT (Fluka). After a 30 min incubation period, 5 μL Streptavidin PVT SPA Beads (Perkin Elmer) at 1.2 mg/mL, diluted in the buffer, were added.
Experiment [3] concerns HIF2α-regulated expression of the endogenous target gene hEGLN3 in 786-O cells. The experiment can be described thus: Cellular iScript assay for HIF2α (quantitative RT-PCR of hEGLN3). The experiment is classed as cell-based, human. Particulars: Homo sapiens, 786-0, 48 hours incubation. The method in brief: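 786-O cells were exposed to eleven 2-fold compound dilutions for 48 h at 37° C. Lysates underwent one-step TaqMan qRT-PCR for hEGLN3 with beta-actin as reference; 2^(−ΔΔCt) versus DMSO, as % of control, was fit with a four-parameter model to give IC50.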

Sequence of HIF2α PAS-B domain (236-350, biotinylated on the N-terminus) (Q99814 236-350): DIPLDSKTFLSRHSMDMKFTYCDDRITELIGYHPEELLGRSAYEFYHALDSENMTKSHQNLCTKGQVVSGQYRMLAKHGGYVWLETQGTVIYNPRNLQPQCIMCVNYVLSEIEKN

Take `FC(F)OC1=CC(C(F)(F)F)=CN2C[C@@]3(CCCc4ccccc43)N=C12` [Example 12, (S)-8-(difluoromethoxy)-6-(trifluoromethyl)-3′,4′-dihydro-2′H,3H-spiro[imidazo[1,2-a]pyridine-2,1′-naphthalene]]: the pIC50 was 6.60 in experiment [1], 8.10 in experiment [2] and 7.23 in experiment [3].

`Fc1c(SC(F)F)ccc2c1OCC[C@@]21CN2C=C(C(F)(F)F)C=C(OC(F)F)C2=N1` [Example 106, (S)-8′-(difluoromethoxy)-7-((difluoromethyl)thio)-8-fluoro-6′-(trifluoromethyl)-3′H-spiro[chromane-4,2′-imidazo[1,2-a]pyridine]]: the negative-log IC50 (pIC50) in experiment [1] is 6.83; in experiment [2], 8.00; in experiment [3], 7.09.

As for `COc1nccc2c1C(F)(F)CC[C@@]21CN2C=C(C(F)(F)F)C=C(OC(F)F)C2=N1` [Example 34, (S)-8-(difluoromethoxy)-8′,8′-difluoro-1′-methoxy-6-(trifluoromethyl)-7′,8′-dihydro-3H, 6′H-spiro[imidazo[1,2-a]pyridine-2,5′-isoquinoline]], the pIC50 in experiment [1] was 5.84; in experiment [2], 7.64; in experiment [3], 6.71.

In the case of `FC(F)OC1=CC(C(F)(F)F)=CN2C[C@@]3(CCOc4cc(Cl)ccc43)N=C12` [Example 41, (S)-7-chloro-8′-(difluoromethoxy)-6′-(trifluoromethyl)-3′H-spiro[chroman-4,2′-imidazo[1,2-a]pyridine]], the results for the pIC50 in experiment [1], in experiment [2] and in experiment [3] were 6.55, 7.96 and 7.27, respectively.

As for `FC(F)OC1=CC(C(F)(F)F)=CN2C[C@@]3(CCCc4c(Cl)cccc43)N=C12` [Example 88, (S)-5′-chloro-8-(difluoromethoxy)-6-(trifluoromethyl)-3′,4′-dihydro-2′H,3H-spiro[imidazo[1,2-a]pyridine-2,1′-naphthalene]], the negative logarithm of the IC50 (pIC50) in experiment [1] is 6.85; in experiment [2], not below 8.40; in experiment [3], 7.49.

Consider `FC(F)OC1=CC(C(F)(F)F)=CN2C[C@@]3(CCOc4c(C(F)(F)F)cccc43)N=C12` [Example 104, (S)-8′-(difluoromethoxy)-6′,8-bis(trifluoromethyl)-3′H-spiro[chromane-4,2′-imidazo[1,2-a]pyridine]], for which the values for the pIC50 in experiment [1], in experiment [2] and in experiment [3] were 6.20, not below 8.30 and 6.93, respectively.

`N#CC1=CN2C[C@@]3(CCOc4c3ccc(I)c4F)N=C2C(OC(F)F)=C1` [Example 51, (S)-8′-(difluoromethoxy)-8-fluoro-7-iodo-3′H-spiro[chroman-4,2′-imidazo[1,2-a]pyridine]-6′-carbonitrile]: the negative logarithm of the IC50 (pIC50) in experiment [1] is 6.29; in experiment [2] it was 8.05; in experiment [3], 7.09.

On to `COC1=CC(C(F)(F)F)=CN2C[C@@]3(CCC(F)(F)c4c3ccnc4Cl)N=C12` [Example 30, (S)-1′-chloro-8′,8′-difluoro-8-methoxy-6-(trifluoromethyl)-7′,8′-dihydro-3H,6′H-spiro[imidazo[1,2-a]pyridine-2,5′-isoquinoline]], for which the pIC50 is 5.87 in experiment [1], 7.57 in experiment [2] and 6.89 in experiment [3].

As to `FCOC1=CC(C(F)(F)F)=CN2C[C@@]3(CCSc4c3cnc(C(F)(F)F)c4F)N=C12` [Example 114, (S)-8′-fluoro-8-(fluoromethoxy)-6,7′-bis(trifluoromethyl)-2′,3′-dihydro-3H-spiro[imidazo[1,2-a]pyridine-2,4′-thiopyrano[3,2-c]pyridine]], the negative-log IC50 (pIC50) in experiment [1] is 6.45; in experiment [2], 7.38; in experiment [3], 7.08.

Turning to `[2H]C1([2H])CC[C@@]2(CN3C=C(C#N)C=C(OC(F)F)C3=N2)c2cccc(F)c21` [Example 27, d2-(S)-8-(difluoromethoxy)-5′-fluoro-3′,4′-dihydro-2′H,3H-spiro[imidazo[1,2-a]pyridine-2,1′-naphthalene]-6-carbonitrile], the negative-log IC50 (pIC50) in experiment [1] was 6.73; in experiment [2], 7.92; in experiment [3] it was 6.99.

Turning to `N#Cc1ccc2c(c1Cl)OCC[C@@]21CN2C=C(C(F)(F)F)C=C(OC(F)F)C2=N1` [Example 96, (S)-8-chloro-8′-(difluoromethoxy)-6′-(trifluoromethyl)-3′H-spiro[chromane-4,2′-imidazo[1,2-a]pyridine]-7-carbonitrile], the results for the negative-log IC50 (pIC50) in experiment [1], in experiment [2] and in experiment [3] were 6.29, 7.49 and 6.70, respectively.

For `Fc1cccc2c1OCCC[C@@]21CN2C=C(C(F)(F)F)C=C(OC(F)F)C2=N1` [Example 69, (S)-8′-(difluoromethoxy)-9-fluoro-6′-(trifluoromethyl)-3,4-dihydro-2H,3′H-spiro[benzo[b]oxepine-5,2′-imidazo[1,2-a]pyridine]], the negative logarithm of the IC50 (pIC50) in experiment [1] was 6.56; in experiment [2], 8.05; in experiment [3], 7.36.

`Fc1c(Cl)ccc2c1OCC[C@@]21CN2C=C(C(F)(F)F)C=C(OC(F)F)C2=N1` [Example 43, (S)-7-chloro-8′-(difluoromethoxy)-8-fluoro-6′-(trifluoromethyl)-3′H-spiro[chroman-4,2′-imidazo[1,2-a]pyridine]]: the results for the negative-log IC50 (pIC50) in experiment [1], in experiment [2] and in experiment [3] were 6.74, 8.00 and 7.23, respectively.

With `Fc1cccc2c1C(F)(F)CC[C@@]21CN2C=C(C(F)(F)F)C=C(OC(F)F)C2=N1` [Example 23, (S)-8-(difluoromethoxy)-4′,4′,5′-trifluoro-6-(trifluoromethyl)-3′,4′-dihydro-2′H,3H-spiro[imidazo[1,2-a]pyridine-2,1′-naphthalene]], the figures for the pIC50 in experiment [1], in experiment [2] and in experiment [3] were 7.04, 8.40 and 7.52, respectively.

For the compound `Fc1ccc2c(c1Cl)CCC[C@@]21CN2C=C(C(F)(F)F)C=C(OC(F)F)C2=N1` [Example 82, (5)-5′-chloro-8-(difluoromethoxy)-6′-fluoro-6-(trifluoromethyl)-3′,4′-dihydro-2′H,3H-spiro[imidazo[1,2-a]pyridine-2,1′-naphthalene]], the pIC50 in experiment [1] is 6.81; in experiment [2] it was not below 8.52; in experiment [3], 7.41.

Take `Fc1c(Br)ccc2c1[C@@H](F)[C@H](F)C[C@@]21CN2C=C(C(F)(F)F)C=C(OC(F)F)C2=N1` [Example 83, (2S,3′R,4′R)-6′-bromo-8-(difluoromethoxy)-3′,4′,5′-trifluoro-6-(trifluoromethyl)-3′,4′-dihydro-2′H,3H-spiro[imidazo[1,2-a]pyridine-2,1′-naphthalene]]: the negative logarithm of the IC50 (pIC50) was 7.57 in experiment [1], 8.05 in experiment [2] and 7.52 in experiment [3].

`Fc1c(Br)ccc2c1OCC[C@@]21CN2C=C(C(F)(F)F)C=C(OC(F)F)C2=N1` [Example 39, (S)-7-bromo-8′-(difluoromethoxy)-8-fluoro-6′-(trifluoromethyl)-3′H-spiro[chroman-4,2′-imidazo[1,2-a]pyridine]]: the pIC50 was 6.60 in experiment [1], not below 8.22 in experiment [2] and 7.31 in experiment [3].

On to `FC(F)OC1=CC(C(F)(F)F)=CN2C[C@@]3(N=C12)c1ccc(I)cc1OC[C@@H]3F` [Example 60, (2′S,3R)-8′-(difluoromethoxy)-3-fluoro-7-iodo-6′-(trifluoromethyl)-3′H-spiro[chroman-4,2′-imidazo[1,2-a]pyridine]], for which the pIC50 was 7.19 in experiment [1], 8.22 in experiment [2] and 7.57 in experiment [3].

`O=C1c2c(ccc(Br)c2F)[C@]2(CN3C=C(C(F)(F)F)C=C(OC(F)F)C3=N2)CC1(F)F` [Example 17, (S)-6′-bromo-8-(difluoromethoxy)-3′,3′,5′-trifluoro-6-(trifluoromethyl)-2′H,3H-spiro[imidazo[1,2-a]pyridine-2,1′-naphthalen]-4′(3′H)-one]: the negative logarithm of the IC50 (pIC50) in experiment [1] was 6.33; in experiment [2], 7.21; in experiment [3], 6.70.

`Fc1c(OC(F)(F)F)ccc2c1OCC[C@@]21CN2C=C(C(F)(F)F)C=C(OC(F)F)C2=N1` [Example 105, (S)-8′-(difluoromethoxy)-8-fluoro-7-(trifluoromethoxy)-6′-(trifluoromethyl)-3′H-spiro[chromane-4,2′-imidazo[1,2-a]pyridine]]: the negative-log IC50 (pIC50) was 6.61 in experiment [1], 7.68 in experiment [2] and 6.74 in experiment [3].

Turning to `Fc1c(Cl)ccc2c1COCC[C@@]21CN2C=C(C(F)(F)F)C=C(OC(F)F)C2=N1` [Example 119, (S)-8-chloro-8′-(difluoromethoxy)-9-fluoro-6′-(trifluoromethyl)-3,4-dihydro-1H,3′H-spiro[benzo[c]oxepine-5,2′-imidazo[1,2-a]pyridine]], the pIC50 was 6.53 in experiment [1], 7.72 in experiment [2] and 7.01 in experiment [3].

`Fc1c(Cl)ccc2c1OC[C@H](F)[C@@]21CN2C=C(C(F)(F)F)C=C(OC(F)F)C2=N1` [Example 97, (3R,4S)-7-chloro-8′-(difluoromethoxy)-3,8-difluoro-6′-(trifluoromethyl)-3′H-spiro[chromane-4,2′-imidazo[1,2-a]pyridine]]: the pIC50 in experiment [1] was 6.71; in experiment [2], 7.96; in experiment [3], 7.24.

As to `FCOC1=CC(C(F)(F)F)=CN2C[C@@]3(CCc4c3ccc(Br)c4F)N=C12` [Example 5, (5)-5′-bromo-4′-fluoro-8-(fluoromethoxy)-6-(trifluoromethyl)-2′,3′-dihydro-3H-spiro[imidazo[1,2-a]pyridine-2,1′-indene]], the pIC50 in experiment [1] is 6.48; in experiment [2], 8.05; in experiment [3] it was 6.86.

Broadly, the pIC50 is the IC50 on a negative log10 scale, so that one unit is a factor of ten. Higher therefore signals a small IC50.
